Sander's compilation of Henry's law constants
Several values for one entry are separate records, joined by “and”; a condition that tells them apart may be missing. Identical values can stand only once. Values belong to the compound of their own block, whether it stands above or below them.

Assay: Henry solubility constant Hcp at 298.15 K (mol/(m3 Pa))
[1] = reference: Mabury and Crosby (1996)
[2] = reference: Warner et al. (1980)
[3] = reference: Murphy et al. (1983a)
[4] = reference: Christie and Crisp (1967)
[5] = reference: Amoore and Buttery (1978)
[6] = reference: McFall et al. (2020)
[7] = reference: Wieland et al. (2015)
[8] = reference: Charles and Destaillats (2005)
[9] = reference: Cosgrove and Walkley (1981)
[10] = reference: Crovetto et al. (1982)
[11] = reference: Krause and Benson (1989)
[12] = reference: Morrison and Johnstone (1954)
[13] = reference: von Antropoff (1910)
[14] = reference: Bowden et al. (1998a)
[15] = reference: Hawthorne et al. (1985)
[16] = reference: Hovorka et al. (2019)
[17] = reference: De Bruyn et al. (1995b)
[18] = reference: Buttery et al. (1965)

- Henry solubility constant Hcp (reference: Katrib et al. (2003)): 30
Compound: COC(=O)CCC(=O)OC [butanedioic acid, dimethyl ester]

Compound: Cc1cc(Cl)ccc1OCC(=O)O [(2-methyl-4-chlorophenoxy)acetic acid]
- Henry solubility constant Hcp [1]: > 99

Compound: ClC=CCCl [1,3-dichloropropene]
- Henry solubility constant Hcp [2]: 0.0028

- Henry solubility constant Hcp (reference: Xu and Kropscott (2014)): 0.07
Compound: C[Si](C)(C)O [trimethylsilanol]

Compound: Clc1cc(Cl)c(-c2c(Cl)ccc(Cl)c2Cl)cc1Cl [2,2',3,4',5',6-hexachlorobiphenyl]
- Henry solubility constant Hcp [3]: 0.033

Compound: CCN [ethanamine]
- Henry solubility constant Hcp (reference: Butler and Ramchandani (1935)): 0.99
- Henry solubility constant Hcp [4]: 0.8

Compound: CN(C)C [trimethylamine]
- Henry solubility constant Hcp [5]: 0.076
- Henry solubility constant Hcp [4]: 0.095
- Henry solubility constant Hcp (reference: Leng et al. (2015a)): 0.084

- Henry solubility constant Hcp [6]: 9.2
Compound: C=CCc1ccc(O)c(OC)c1 [2-methoxy-4-(2-propenyl)-phenol]

- Henry solubility constant Hcp [7]: 0.0015
Compound: Cc1ccco1 [2-methylfuran]

Compound: Clc1ccc(-c2cc(Cl)c(Cl)cc2Cl)cc1Cl [2,3',4,4',5-pentachlorobiphenyl]
- Henry solubility constant Hcp [8]: 0.018
- Henry solubility constant Hcp [3]: 0.025

Compound: Clc1ccc(Cl)c(-c2cc(Cl)c(Cl)c(Cl)c2Cl)c1 [2,2',3,4,5,5'-hexachlorobiphenyl]
- Henry solubility constant Hcp [3]: 0.025

Compound: CCN(CC)N=O [N-nitrosodiethylamine]
- Henry solubility constant Hcp (reference: Klein (1982)): 5.6
- Henry solubility constant Hcp (reference: Thompson et al. (2018)): 0.012

- Henry solubility constant Hcp (reference: Ashton et al. (1968)): 1.4e-05
- Henry solubility constant Hcp [9]: 1.4e-05
- Henry solubility constant Hcp [10]: 1.4e-05
- Henry solubility constant Hcp (reference: Friedman (1954)): 1.4e-05
- Henry solubility constant Hcp [11]: 1.4e-05
- Henry solubility constant Hcp (reference: Lannung (1930)): 1.4e-05
- Henry solubility constant Hcp [12]: 1.3e-05
- Henry solubility constant Hcp (reference: Murray and Riley (1970)): 1.4e-05
- Henry solubility constant Hcp (reference: Park et al. (1982)): 1.4e-05
- Henry solubility constant Hcp (reference: Potter II and Clynne (1978)): 1.4e-05
- Henry solubility constant Hcp (reference: Rettich et al. (1992)): 1.4e-05
- Henry solubility constant Hcp (reference: Shoor et al. (1969)): 1.4e-05
- Henry solubility constant Hcp (reference: Winkler (1906)): 1.5e-05
- Henry solubility constant Hcp [13]: 1.6e-05
Compound: [Ar] [argon]

- Henry solubility constant Hcp (reference: Plyasunov (2012)): 2.3e+10
Compound: O[Si](O)(O)O [silicic acid]

Compound: BrC(Br)C(Br)Br [1,1,2,2-tetrabromoethane]
- Henry solubility constant Hcp (reference: Khalfaoui and Newsham (1994a)): 0.01

Compound: [CH3][Hg+].[OH-] [hydroxymethylmercury]
- Henry solubility constant Hcp (reference: Iverfeldt and Persson (1985)): 980

- Henry solubility constant Hcp (reference: Coquelet and Richon (2005)): 0.0015
- Henry solubility constant Hcp (reference: Haimi et al. (2006)): 0.0015
Compound: CCCCS [1-butanethiol]

Compound: [CH3][Hg][CH3] [dimethylmercury]
- Henry solubility constant Hcp (reference: Talmi and Mesmer (1975)): 0.0013

- Henry solubility constant Hcp (reference: Schwarz and Wasik (1977)): 0.028
Compound: Cc1cccc2ccccc12 [1-methylnaphthalene]

Compound: Brc1ccc(Oc2c(Br)cc(Br)cc2Br)c(Br)c1 [2,2',4,4',6-pentabromodiphenyl ether]
- Henry solubility constant Hcp (reference: Cetin and Odabasi (2005)): 3.8
- Henry solubility constant Hcp [8]: 0.19
- Henry solubility constant Hcp (reference: Long et al. (2017)): 3.6

Compound: O=C(O)CBr [bromoethanoic acid]
- Henry solubility constant Hcp [14]: 1500

- Henry solubility constant Hcp [6]: 96000
Compound: COc1cc(CO)ccc1O [vanillyl alcohol]

Compound: O=C(O)CF [fluoroethanoic acid]
- Henry solubility constant Hcp [14]: 800

- Henry solubility constant Hcp [15]: 0.99
Compound: Cc1ccnc(C)c1 [2,4-dimethylpyridine]

Compound: ClC(Cl)=C(c1ccc(Cl)cc1)c1ccc(Cl)cc1 [1,1-dichloro-2,2-bis-(4-chlorophenyl)-ethene]
- Henry solubility constant Hcp (reference: Jantunen and Bidleman (2006)): 0.029

- Henry solubility constant Hcp (reference: Olson (1998)): 300
Compound: O=CCCCC=O [pentanedial]

Compound: CCCO [1-propanol]
- Henry solubility constant Hcp (reference: Burnett (1963)): 1.6
- Henry solubility constant Hcp (reference: Butler et al. (1935)): 1.4
- Henry solubility constant Hcp (reference: Gupta et al. (2000)): 1.2
- Henry solubility constant Hcp (reference: Richon et al. (1985)): 1.8
- Henry solubility constant Hcp (reference: Snider and Dawson (1985)): 1.3
- Henry solubility constant Hcp (reference: Straver and de Loos (2005)): 1.5
- Henry solubility constant Hcp (reference: Vitenberg and Dobryakov (2008)): 1.5

Compound: CCSCC [diethyl sulfide]
- Henry solubility constant Hcp (reference: Schuhfried et al. (2011)): 0.0035

Compound: Clc1ccc(Cl)c(-c2ccccc2Cl)c1 [2,2',5-trichlorobiphenyl]
- Henry solubility constant Hcp [3]: 0.049

- Henry solubility constant Hcp (reference: Nguyen (2013)): 1800
Compound: CN1CCNCC1 [N-methylpiperazine]

Compound: N=C=O [isocyanic acid]
- Henry solubility constant Hcp (reference: Roberts et al. (2011)): 0.21

- Henry solubility constant Hcp [16]: 0.052
Compound: CCC(=O)C(C)C [2-methyl-3-pentanone]

- Henry solubility constant Hcp (reference: Rochester and Symonds (1973)): 0.45
Compound: CC(O)C(F)(F)F (configuration not stated) [1,1,1-trifluoro-2-propanol]

Compound: FCC(F)(F)F [1,1,1,2-tetrafluoroethane]
- Henry solubility constant Hcp (reference: Chang and Criddle (1995)): 0.00019
- Henry solubility constant Hcp (reference: Maaßen (1995)): 0.00016
- Henry solubility constant Hcp (reference: Reichl (1995)): 0.00016
- Henry solubility constant Hcp (reference: Zheng et al. (1997)): 0.00016

Compound: c1ccc(-c2ccccc2)cc1 [biphenyl]
- Henry solubility constant Hcp (reference: Mackay et al. (1979)): 0.024

Compound: CC(=O)CC(C)C [4-methyl-2-pentanone]
- Henry solubility constant Hcp [16]: 0.065
- Henry solubility constant Hcp (reference: Kim et al. (2000)): 0.039

Compound: CCCOC=O [propyl methanoate]
- Henry solubility constant Hcp (reference: Kutsuna et al. (2005)): 0.026

Compound: CS [methanethiol]
- Henry solubility constant Hcp [17]: 0.002
- Henry solubility constant Hcp (reference: Hine and Weimar (1965)): 0.0033

- Henry solubility constant Hcp [7]: 0.011
Compound: CCOC(=O)CC(C)C [ethyl 3-methylbutanoate]

Compound: CC(Cl)CCl (configuration not stated) [1,2-dichloropropane]
- Henry solubility constant Hcp (reference: Bissonette et al. (1990)): 0.003
- Henry solubility constant Hcp (reference: Bobadilla et al. (2003)): 0.0042
- Henry solubility constant Hcp [2]: 0.0035

Compound: Clc1ccc(-c2c(Cl)cc(Cl)c(Cl)c2Cl)cc1Cl [2,3,3',4,4',6-hexachlorobiphenyl]
- Henry solubility constant Hcp [3]: 0.015

Compound: Brc1ccc(Br)cc1 [1,4-dibromobenzene]
- Henry solubility constant Hcp (reference: Kuramochi et al. (2004)): 0.0094

Compound: Cc1cc(C)nc(Nc2ccccc2)n1 [pyrimethanil]
- Henry solubility constant Hcp (reference: Feigenbrugel and Le Calvé (2021)): 340

Compound: CCCC=O [butanal]
- Henry solubility constant Hcp [18]: 0.064
- Henry solubility constant Hcp (reference: Ji and Evans (2007)): 0.089

- Henry solubility constant Hcp [18]: 0.17
Compound: CCCCCCCCCC=O [decanal]

Compound: CCCNCCC [dipropylamine]
- Henry solubility constant Hcp [4]: 0.19
- Henry solubility constant Hcp (reference: Leng et al. (2015a)): 0.12

Compound: CNC(=O)Oc1cccc2c1OC(C)(C)C2 [carbofuran]
- Henry solubility constant Hcp [1]: > 99

- Henry solubility constant Hcp (reference: Kim et al. (2000)): 1400
Compound: CCCCOCCOCCO [3,6-dioxa-1-decanol]

- Henry solubility constant Hcp (reference: Maaßen (1995)): 5.4e-05
- Henry solubility constant Hcp (reference: Reichl (1995)): 5.4e-05
Compound: C=CC [propene]

- Henry solubility constant Hcp (reference: Saidman et al. (1966)): 0.00011
Compound: C1CC1 [cyclopropane]

Compound: S=C=S [carbon disulfide]
- Henry solubility constant Hcp [17]: 0.00054
- Henry solubility constant Hcp (reference: Elliott (1989)): 0.00062

Compound: CC(C)(Cl)Cl [2,2-dichloropropane]
- Henry solubility constant Hcp (reference: Bakierowska and Trzeszczyński (2003)): 0.00081

- Henry solubility constant Hcp [3]: 0.0045
Compound: Clc1ccc(-c2c(Cl)c(Cl)cc(Cl)c2Cl)c(Cl)c1Cl [2,2',3,3',4,5',6'-heptachlorobiphenyl]

- Henry solubility constant Hcp [15]: 0.66
Compound: Cc1cccc(C)n1 [2,6-dimethylpyridine]

- Henry solubility constant Hcp (reference: Kim et al. (2008)): 2100
- Henry solubility constant Hcp (reference: Nguyen (2013)): 1400
Compound: CNCCCN [N-methyl-1,3-propanediamine]

Compound: Cc1cccc(C=O)c1 [3-methylbenzaldehyde]
- Henry solubility constant Hcp (reference: Wu et al. (2022b)): 0.3

- Henry solubility constant Hcp (reference: Perlinger et al. (1993)): 0.00086
Compound: CCCc1ccccc1 [propylbenzene]

Compound: FC(F)F [trifluoromethane]
- Henry solubility constant Hcp (reference: Maaßen (1995)): 0.00012
- Henry solubility constant Hcp (reference: Miguel et al. (2000)): 0.00021
- Henry solubility constant Hcp (reference: Zheng et al. (1997)): 0.00013

- Henry solubility constant Hcp [9]: 2.6e-05
- Henry solubility constant Hcp [10]: 2.5e-05
- Henry solubility constant Hcp [11]: 2.5e-05
- Henry solubility constant Hcp [12]: 2.4e-05
- Henry solubility constant Hcp [13]: 3.4e-05 and 2.8e-05
Compound: [Kr] [krypton]

Compound: CC(=O)OCC(F)(F)F [2,2,2-trifluoroethyl ethanoate]
- Henry solubility constant Hcp (reference: Kutsuna et al. (2004)): 0.0057

- Henry solubility constant Hcp (reference: Sarraute et al. (2006)): 0.013
Compound: BrCCCCCCCCBr [1,8-dibromooctane]

- Henry solubility constant Hcp [5]: 0.004
Compound: O=C1CCCCCCCCCCCCCCO1 [oxacyclohexadecan-2-one]
